Drawing on patent US9926282B2, “Phthalazinones and isoquinolinones as rock inhibitors” (BRISTOL-MYERS SQUIBB COMPANY, priority 2013, dated 2018), this text covers IC50 for 31 molecules.

One experiment deals with ROCK1 (Homo sapiens (Human), UniProt Q13464). Description: ROCK assay (LABCHIP peptide phosphorylation), ROCK1. In kind it is biochemical. The conditions noted are these: 5 μM ATP, 1.5 μM peptide substrate; read-out: ROCK1 IC50.
For the next experiment, the target named is ROCK2 (Homo sapiens (Human), UniProt O75116). Put plainly: ROCK assay (LABCHIP peptide phosphorylation), ROCK2. In kind it is biochemical. As to conditions: 5 μM ATP, 1.5 μM peptide substrate.
Sequence of ROCK2 (O75116 whole entry, species assumed): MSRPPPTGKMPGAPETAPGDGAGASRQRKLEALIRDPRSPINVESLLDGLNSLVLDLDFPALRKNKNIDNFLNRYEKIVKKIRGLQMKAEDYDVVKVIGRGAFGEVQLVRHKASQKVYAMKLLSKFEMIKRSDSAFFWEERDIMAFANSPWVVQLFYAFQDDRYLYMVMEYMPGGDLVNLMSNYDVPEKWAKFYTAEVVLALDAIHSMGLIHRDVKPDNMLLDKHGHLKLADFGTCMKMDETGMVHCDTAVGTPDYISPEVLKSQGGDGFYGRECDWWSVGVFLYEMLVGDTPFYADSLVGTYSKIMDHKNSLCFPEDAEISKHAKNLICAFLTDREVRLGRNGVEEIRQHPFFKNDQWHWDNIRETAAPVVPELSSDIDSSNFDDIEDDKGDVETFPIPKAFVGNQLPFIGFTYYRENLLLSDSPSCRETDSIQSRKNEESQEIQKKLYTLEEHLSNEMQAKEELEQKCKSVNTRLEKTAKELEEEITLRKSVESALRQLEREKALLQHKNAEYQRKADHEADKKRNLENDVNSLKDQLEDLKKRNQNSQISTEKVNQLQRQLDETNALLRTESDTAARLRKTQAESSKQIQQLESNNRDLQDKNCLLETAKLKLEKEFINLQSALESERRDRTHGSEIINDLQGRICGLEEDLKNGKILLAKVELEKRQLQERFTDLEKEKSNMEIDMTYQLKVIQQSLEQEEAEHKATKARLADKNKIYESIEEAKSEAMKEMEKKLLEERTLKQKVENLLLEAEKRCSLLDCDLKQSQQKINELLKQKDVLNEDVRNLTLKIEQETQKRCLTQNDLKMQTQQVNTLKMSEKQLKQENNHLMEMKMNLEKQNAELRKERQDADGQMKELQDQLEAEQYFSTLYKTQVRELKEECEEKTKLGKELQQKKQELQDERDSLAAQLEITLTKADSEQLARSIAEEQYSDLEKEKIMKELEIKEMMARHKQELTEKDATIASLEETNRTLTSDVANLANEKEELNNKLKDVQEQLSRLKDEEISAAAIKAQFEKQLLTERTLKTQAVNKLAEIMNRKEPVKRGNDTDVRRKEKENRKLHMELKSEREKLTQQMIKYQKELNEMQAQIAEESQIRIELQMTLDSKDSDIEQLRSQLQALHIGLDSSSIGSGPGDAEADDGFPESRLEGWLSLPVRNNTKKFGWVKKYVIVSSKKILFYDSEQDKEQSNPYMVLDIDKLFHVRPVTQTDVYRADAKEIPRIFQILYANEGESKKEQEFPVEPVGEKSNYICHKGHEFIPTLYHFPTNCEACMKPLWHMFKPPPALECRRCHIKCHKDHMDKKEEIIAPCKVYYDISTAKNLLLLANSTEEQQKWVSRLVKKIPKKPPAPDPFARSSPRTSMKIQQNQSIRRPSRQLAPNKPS

Sequence of ROCK1 (Q13464 whole entry, species assumed): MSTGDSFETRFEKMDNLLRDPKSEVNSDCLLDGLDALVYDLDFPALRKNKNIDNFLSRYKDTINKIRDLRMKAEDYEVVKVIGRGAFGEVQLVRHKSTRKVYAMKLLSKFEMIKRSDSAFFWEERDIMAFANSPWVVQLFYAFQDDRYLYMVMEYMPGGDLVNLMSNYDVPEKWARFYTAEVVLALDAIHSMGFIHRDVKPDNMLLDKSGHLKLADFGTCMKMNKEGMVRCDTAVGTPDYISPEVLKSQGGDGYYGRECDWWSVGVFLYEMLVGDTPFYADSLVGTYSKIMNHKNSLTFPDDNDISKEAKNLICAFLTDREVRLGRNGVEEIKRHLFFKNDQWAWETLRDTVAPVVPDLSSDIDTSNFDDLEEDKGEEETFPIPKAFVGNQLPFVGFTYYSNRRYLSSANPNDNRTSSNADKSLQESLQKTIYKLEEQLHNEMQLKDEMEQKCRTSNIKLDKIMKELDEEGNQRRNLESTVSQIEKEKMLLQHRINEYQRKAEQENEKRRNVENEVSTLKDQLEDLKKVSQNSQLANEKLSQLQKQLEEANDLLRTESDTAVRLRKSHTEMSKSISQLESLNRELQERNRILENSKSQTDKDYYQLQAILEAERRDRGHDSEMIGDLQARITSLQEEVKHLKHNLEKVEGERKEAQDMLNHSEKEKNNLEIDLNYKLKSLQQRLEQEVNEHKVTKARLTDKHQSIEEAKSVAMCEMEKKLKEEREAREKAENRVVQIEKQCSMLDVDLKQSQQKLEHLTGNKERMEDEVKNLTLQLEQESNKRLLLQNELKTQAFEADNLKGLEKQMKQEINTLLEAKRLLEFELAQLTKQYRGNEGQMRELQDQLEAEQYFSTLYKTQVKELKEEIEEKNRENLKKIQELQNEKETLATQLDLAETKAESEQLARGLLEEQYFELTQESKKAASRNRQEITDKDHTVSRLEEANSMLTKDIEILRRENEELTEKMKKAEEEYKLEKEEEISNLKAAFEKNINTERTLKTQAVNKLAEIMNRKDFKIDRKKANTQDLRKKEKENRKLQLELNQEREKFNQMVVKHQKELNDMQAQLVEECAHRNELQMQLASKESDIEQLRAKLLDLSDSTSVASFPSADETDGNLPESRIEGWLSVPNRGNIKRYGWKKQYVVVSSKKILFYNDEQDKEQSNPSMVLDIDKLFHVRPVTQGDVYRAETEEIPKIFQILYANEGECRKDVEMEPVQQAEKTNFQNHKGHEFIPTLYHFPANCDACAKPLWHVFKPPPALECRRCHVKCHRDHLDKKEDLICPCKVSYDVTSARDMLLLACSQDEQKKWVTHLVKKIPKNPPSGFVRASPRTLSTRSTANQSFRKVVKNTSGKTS

The IC50 is the point on the concentration scale where inhibition reaches its midpoint. On to `O=C(Cc1ccc(-c2n[nH]c(=O)c3ccccc23)cc1)N1CCc2ccc(OCC3COC3)cc21` [Example 284, 4-(4-{2-[6-(oxetan-3-ylmethoxy)-2,3-dihydro-1H-indol-1-yl]-2-oxoethyl}phenyl)-1,2-dihydrophthalazin-1-one], for which the 50% inhibitory concentration (IC50) at ROCK1 and against ROCK2 was 0.0001 to 0.1 µM in each case.

As for `CN1CCN(Cc2ccc3c(c2)CN(C(=O)Cc2ccc(-c4n[nH]c(=O)c5ccccc45)cc2)C3)CC1` [Example 25], the IC50 was 0.101 to 1 µM on ROCK1 and 0.0001 to 0.1 µM against ROCK2.

In the case of “2-[4-(4-oxo-3,4- dihydrophthalazin-1- yl)phenyl]-N-[(1S,2R)- 2-phenylcyclopropyl] acetamide [Example 18]”, the half-maximal inhibitory concentration (IC50) at ROCK1 and on ROCK2 was 1 to 50 µM in each case.

Consider `COc1ccccc1-n1cc(C(=O)Nc2ccc(-c3n[nH]c(=O)c4ccccc34)cc2)nn1` [Example 406, 1-(2-Methoxyphenyl)-N-(4-(4-oxo-3,4-dihydrophthalazin-1-yl)phenyl)-1H-1,2,3-triazole-4-carboxamide], for which the IC50 on ROCK1 and against ROCK2 was 0.0001 to 0.1 µM in each case.

With `O=C(Nc1ccc(-c2n[nH]c(=O)c3ccccc23)cc1)c1cnn(-c2ccccc2)c1` [Example 191, N-[4-(4-oxo-3,4-dihydrophthalazin-1-yl)phenyl]-1-phenyl-1H-pyrazole-4-carboxamide], the IC50 at ROCK1 and at ROCK2 was 0.0001 to 0.1 µM each time.

With `Cn1nc(C(=O)Nc2ccc(-c3n[nH]c(=O)c4ccccc34)c(CO)c2)c2ccccc21` [Example 363, N-(3-(Hydroxymethyl)-4-(4-oxo-3,4-dihydrophthalazin-1-yl)phenyl)-1-methyl-1H-indazole-3-carboxamide], the IC50 at ROCK1 lay within 1 to 50 µM; against ROCK2, 0.0001 to 0.1 µM.

Regarding `COc1cc(NC(=O)c2nn(CC3CCOC3)c3ccccc23)ccc1-c1n[nH]c(=O)c2ccccc12` (centres unmarked) [Example 348, N-(3-Methoxy-4-(4-oxo-3,4-dihydrophthalazin-1-yl)phenyl)-1-((tetrahydrofuran-3-yl)methyl)-1H-indazole-3-carboxamide], the IC50 at ROCK1 was in the range of 0.101 to 1 µM; against ROCK2, 0.0001 to 0.1 µM.

Take `O=C(Nc1ccc(-c2n[nH]c(=O)c3ccccc23)cc1)c1nn(CC2CCOC2)c2ccccc12` (centres unmarked) [Example 146, N-[4-(4-oxo-3,4-dihydrophthalazin-1-yl)phenyl]-1-(oxolan-3-ylmethyl)-1H-indazole-3-carboxamide]: the half-inhibitory concentration (IC50) at ROCK1 and at ROCK2 was 0.0001 to 0.1 µM in each case.

Regarding `O=C(Nc1ccc(-c2n[nH]c(=O)c3ccccc23)c(Cl)c1)c1nn(CC2CCOC2)c2ccccc12` (centres unmarked) [Example 319, N-[3-chloro-4-(4-oxo-3,4-dihydrophthalazin-1-yl)phenyl]-1-(oxolan-3-ylmethyl)-1H-indazole-3-carboxamide], the half-maximal inhibitory concentration (IC50) at ROCK1 and at ROCK2 was 0.0001 to 0.1 µM in each case.

On to `Cc1noc(-c2ccc(CO)cc2)c1C(=O)Nc1ccc(-c2n[nH]c(=O)c3ccccc23)cc1` [Example 224, 5-[4-(hydroxymethyl)phenyl]-3-methyl-N-[4-(4-oxo-3,4-dihydrophthalazin-1-yl)phenyl]-1,2-oxazole-4-carboxamide], for which the 50% inhibitory concentration (IC50) on ROCK1 and at ROCK2 was 0.0001 to 0.1 µM throughout.

For `CC(C)(O)Cn1nc(C(=O)Nc2ccc(-c3n[nH]c(=O)c4ccccc34)cc2)c2ccccc21` [Example 137, 1-(2-hydroxy-2-methylpropyl)-N-[4-(4-oxo-3,4-dihydrophthalazin-1-yl)phenyl]-1H-indazole-3-carboxamide], the 50% inhibitory concentration (IC50) on ROCK1 and on ROCK2 was 0.0001 to 0.1 µM throughout.

Take `CN1CC[C@@H](Oc2ccc3c(c2)N(C(=O)Cc2ccc(-c4n[nH]c(=O)c5ccccc45)cc2)CC3)C1` [Example 277, 4-{4-[2-(6-{[(3R)-1-methylpyrrolidin-3-yl]oxy}-2,3-dihydro-1H-indol-1-yl)-2-oxoethyl]phenyl}-1,2-dihydrophthalazin-1-one]: the IC50 at ROCK1 is 0.101 to 1 µM; against ROCK2, 0.0001 to 0.1 µM.

Regarding `Cc1cc(NC(=O)c2c(C)nc3ccccn23)ccc1-c1n[nH]c(=O)c2ccccc12` [Example 311, 2-methyl-N-[3-methyl-4-(4-oxo-3,4-dihydrophthalazin-1-yl)phenyl]imidazo[1,2-a] pyridine-3-carboxamide], the IC50 at ROCK1 and on ROCK2 was 0.0001 to 0.1 µM each time.

As for `Cn1c(C(=O)Nc2ccc(-c3n[nH]c(=O)c4ccccc34)cc2)cc2ccccc21` [Example 90, 1-methyl-N-[4-(4-oxo-3,4-dihydrophthalazin-1-yl)phenyl]-1H-indole-2-carboxamide], the values for the half-inhibitory concentration (IC50) on ROCK1 and on ROCK2 were 0.101 to 1 µM and 0.0001 to 0.1 µM, respectively.

Consider `Cc1cc(CC(=O)N2CCc3ccccc32)ccc1-c1c[nH]c(=O)c2ccccc12` [Example 264, 4-(4-(2-(Indolin-1-yl)-2-oxoethyl)-2-methylphenyl)isoquinolin-1(2H)-one], for which the concentration for half-maximal inhibition (IC50) at ROCK1 and against ROCK2 was 0.0001 to 0.1 µM each time.

For the molecule `O=C(Cc1ccc(-c2n[nH]c(=O)c3ccccc23)cc1)N1CCC(Cc2ccccc2)CC1` [Example 17, 4-{4-[2-(4-benzylpiperidin-1-yl)-2-oxoethyl]phenyl}-1,2-dihydrophthalazin-1-one], the IC50 at ROCK1 is 1 to 50 µM; against ROCK2 it was 0.0001 to 0.1 µM.

Consider `Cn1nc(C(=O)Nc2ccc(-c3n[nH]c(=O)c4ccccc34)cc2)cc1OC(F)F` [Example 403, 5-(Difluoromethoxy)-1-methyl-N-(4-(4-oxo-3,4-dihydrophthalazin-1-yl)phenyl)-1H-pyrazole-3-carboxamide], for which the 50% inhibitory concentration (IC50) at ROCK1 and against ROCK2 was 0.0001 to 0.1 µM in each case.

For `O=C(Nc1ccc(-c2n[nH]c(=O)c3ccccc23)cc1O)c1nn(CC2CCOC2)c2ccccc12` (centres unmarked) [Example 354, N-(2-Hydroxy-4-(4-oxo-3,4-dihydrophthalazin-1-yl)phenyl)-1-((tetrahydrofuran-3-yl)methyl)-1H-indazole-3-carboxamide], the IC50 at ROCK1 and at ROCK2 was 0.0001 to 0.1 µM each time.

Take `O=C(Nc1ccc(-c2n[nH]c(=O)c3ccccc23)c(CO)c1)c1nn(CC2CCOC2)c2ccccc12` (centres unmarked) [Example 355, N-(3-(Hydroxymethyl)-4-(4-oxo-3,4-dihydrophthalazin-1-yl)phenyl)-1-((tetrahydrofuran-3-yl)methyl)-1H-indazole-3-carboxamide]: the IC50 was 1 to 50 µM at ROCK1 and 0.0001 to 0.1 µM at ROCK2.

Consider `O=C(Nc1ccc(-c2n[nH]c(=O)c3ccccc23)cc1)c1cnn(C2COC2)c1` [Example 389, 1-(Oxetan-3-yl)-N-(4-(4-oxo-3,4-dihydrophthalazin-1-yl)phenyl)-1H-pyrazole-4-carboxamide], for which the values for the IC50 on ROCK1 and on ROCK2 were 0.101 to 1 µM and 0.0001 to 0.1 µM, respectively.

Turning to `COCCn1nc(C(=O)Nc2ccc(-c3n[nH]c(=O)c4ccccc34)cc2)c2ccccc21` [Example 151, 1-(2-methoxyethyl)-N-[4-(4-oxo-3,4-dihydrophthalazin-1-yl)phenyl]-1H-indazole-3-carboxamide], the IC50 at ROCK1 and against ROCK2 was 0.0001 to 0.1 µM each time.

With `O=C(Nc1ccc(-c2n[nH]c(=O)c3ccccc23)cc1)c1cnn(C2C3CCC2CC3)c1` (centres unmarked) [Example 392, 1-(Bicyclo[2.2.1]heptan-7-yl)-N-(4-(4-oxo-3,4-dihydrophthalazin-1-yl)phenyl)-1H-pyrazole-4-carboxamide], the IC50 on ROCK1 and against ROCK2 was 0.0001 to 0.1 µM in each case.

Take `O=C(Cc1ccc(-c2n[nH]c(=O)c3ccccc23)cc1)N1CCN(Cc2ccccc2)CC1` [Example 12, 4-{4-[2-(4-benzylpiperazin-1-yl)-2-oxoethyl]phenyl}-1,2-dihydrophthalazin-1-one]: the 50% inhibitory concentration (IC50) at ROCK1 and against ROCK2 was 1 to 50 µM each time.

Regarding `O=C(Nc1ccc(-c2n[nH]c(=O)c3ccccc23)cc1)c1cnn(CCCN2CCCC2)c1` [Example 399, N-(4-(4-Oxo-3,4-dihydrophthalazin-1-yl)phenyl)-1-(3-(pyrrolidin-1-yl)propyl)-1H-pyrazole-4-carboxamide], the IC50 at ROCK1 and at ROCK2 was 0.101 to 1 µM each time.

Consider `Cc1cc(NC(=O)c2cnc3ccccn23)ccc1-c1n[nH]c(=O)c2ccccc12` [Example 312, N-[3-methyl-4-(4-oxo-3,4-dihydrophthalazin-1-yl)phenyl]imidazo [1,2-a]pyridine-3-carboxamide], for which the half-inhibitory concentration (IC50) fell in the range of 0.101 to 1 µM at ROCK1 and 0.0001 to 0.1 µM at ROCK2.

Take `O=C(Nc1ccc(-c2n[nH]c(=O)c3ccccc23)cc1)c1nn(CCO)c2ccccc12` [Example 155, 1-(2-hydroxyethyl)-N-[4-(4-oxo-3,4-dihydrophthalazin-1-yl)phenyl]-1H-indazole-3-carboxamide]: the IC50 on ROCK1 and at ROCK2 was 0.0001 to 0.1 µM each time.

On to `O=C(Nc1ccc(-c2n[nH]c(=O)c3ccccc23)cc1)c1nn(CCC(=O)N2CCOCC2)c2ccccc12` [Example 337, 1-(3-Morpholino-3-oxopropyl)-N-(4-(4-oxo-3,4-dihydrophthalazin-1-yl)phenyl)-1H-indazole-3-carboxamide], for which the IC50 on ROCK1 and against ROCK2 was 0.0001 to 0.1 µM throughout.

With `CCOc1ccc2c(c1)cc(C(=O)Nc1ccc(-c3n[nH]c(=O)c4ccccc34)cc1)n2C` [Example 130, 5-ethoxy-1-methyl-N-[4-(4-oxo-3,4-dihydrophthalazin-1-yl)phenyl]-1H-indole-2-carboxamide], the half-maximal inhibitory concentration (IC50) on ROCK1 and against ROCK2 was 0.0001 to 0.1 µM each time.

Consider `Cn1nc(C(=O)Nc2ccc(-c3n[nH]c(=O)c4ccccc34)cc2)c2ccccc21` [Example 98, 1-methyl-N-[4-(4-oxo-3,4-dihydrophthalazin-1-yl)phenyl]-1H-indazole-3-carboxamide], for which the half-inhibitory concentration (IC50) on ROCK1 and on ROCK2 was 0.0001 to 0.1 µM throughout.

For `Cc1csc(C(=O)Nc2ccc(-c3n[nH]c(=O)c4ccccc34)cc2)n1` [Example 50, 4-methyl-N-[4-(4-oxo-3,4-dihydrophthalazin-1-yl)phenyl]-1,3-thiazole-2-carboxamide], the IC50 on ROCK1 and against ROCK2 was 0.0001 to 0.1 µM throughout.

With `O=C(Nc1ccc(-c2n[nH]c(=O)c3ccccc23)cc1)c1nn(CCCO)c2ccccc12` [Example 164, 1-(3-hydroxypropyl)-N-[4-(4-oxo-3,4-dihydrophthalazin-1-yl)phenyl]-1H-indazole-3-carboxamide], the IC50 at ROCK1 and at ROCK2 was 0.0001 to 0.1 µM each time.
